Experimental data published in patent US8138351B2, “Treatment of duchenne muscular dystrophy” (Summit Corporation PLC, priority 2007, dated 2012).

System: Utrophin A promoter linked to a luciferase reporter gene (H2K/mdx/Utro A reporter cell line)
Experiment: Luciferase reporter assay (murine H2K cells)
Type: cell-based, mouse
Details: final concentration of 10 μM, 48 hrs
Protocol: 1. Luciferase Reporter Assay (Murine […] Cells) The cell line used for the screen is an immortalized mdx mouse H2K cell line that has been stably transfected with a plasmid containing ≈5 kb fragment of the Utrophin A promoter including the first untranslated exon linked to a luciferase reporter gene (see FIG. 1). Under conditions of low temperature and interferon containing media, the cells remain as myoblasts. These are plated into 96 well plates and cultured in the presence of compound for three days. The level of luciferase is then determined by cell lysis and reading of the light output from the expressed luciferase gene utilising a plate luminometer. The H2K/mdx/Utro A Reporter Cell Line Maintenance The H2K/mdx/Utro A reporter cell line was passaged twice a week until ≦30% confluent. The cells were grown at 33° C. in the presence of 10% CO2. To remove the myoblasts for platting, they were incubated with Trypsin/EDTA until the monolayer started to detach. […] Cells were then lysed in situ following the manufacture's protocols (Promega Steady-Glo Luciferase Assay System (E2520), then counted for 10 seconds using a plate luminometer (Victor1420). Biological activity was assessed using the luciferase reporter assay in murine H2K cells, and is classified as follows: […]

Structure (SMILES): CCS(=O)(=O)c1ccc2oc(-c3ccc4ccccc4c3)nc2c1 [5-(ethylsulfonyl)-2-(naphthalen-2-yl)benzo[d]oxazole]
- Biological activity, luciferase reporter assay, relative to control: +++ (Between 301% and 400% relative to control)
